Tests used:
[1] = target: T1, ligand binding domain of the human mineralocorticoid receptor (hMR LBD) (Homo sapiens, UniProt P08235); assay: Mineralocorticoid receptor (MR) in vitro competitive binding assay, [3H]aldosterone displacement; settings: IR^TOTAL = sum of IR^AR/MR, IR^ER/MR, IR^GR/MR, IR^PR/MR
T1 construct: made in house; host or cells: Sf9 insect cells (baculovirus, pFastBac)
T1 sequence (P08235 729-984): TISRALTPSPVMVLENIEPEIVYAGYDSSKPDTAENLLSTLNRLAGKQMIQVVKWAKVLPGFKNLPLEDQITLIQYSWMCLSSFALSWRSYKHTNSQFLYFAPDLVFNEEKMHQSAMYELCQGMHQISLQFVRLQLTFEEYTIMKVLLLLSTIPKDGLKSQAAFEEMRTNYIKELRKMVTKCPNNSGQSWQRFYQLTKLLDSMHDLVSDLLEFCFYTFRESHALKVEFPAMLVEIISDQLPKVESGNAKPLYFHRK
Protocol: Mineralocorticoid receptor (MR) binding assay: Spodoptera furgiperda (Sf9) insect cells (ATCC accession number CRL-1711) were maintained in culture in EX-CELL™ 420 serum free medium (JRH Biosciences, Inc.) at 27° C.
A recombinant baculovirus containing nucleotide sequences encoding the ligand binding domain of the human mineralocorticoid receptor (hMR) cloned into the pFastBac™ vector was generated using the Bac-to-Bac® Baculovirus Expression System Kit (Invitrogen) following the manufacturer's instructions. This recombinant baculovirus contains nucleotides 2401 through 3168 (SEQ ID NO: 13) of hMR, providing for expression of the ligand binding domain (LBD), amino acid residues 729-984 (SEQ ID NO: 14), of hMR (hMR LBD). Cultured Sf9 insect cells were transfected with this recombinant baculovirus following the manufacturer's instructions.
For the binding assay, a crude lysate of the hMR LBD-expressing insect cells was prepared. The crude lysate was diluted 12.5-fold with binding buffer (20 mM Tris-HCl pH 7.4, 1 mM EDTA, 1 mM dithiothreitol, 20 mM sodium tungstate, 50 mM KCl and 10% glycerol).
For the negative control sample, the diluted lysate was incubated with a 10 nM final concentration of the radioligand [1,2,6,7-^3H] aldosterone (Amersham Biosciences, catalogue # 434) for 3.5 h at 4° C. For test compounds and the positive control sample, the diluted lysate was incubated with various concentrations of test compound or with a 20 μM final concentration of spironolactone (Sigma, S-3378) as a reference compound for 45 min on ice, and was then incubated with a 10 nM final concentration of [1,2,6,7-^3H] aldosterone for 3.5 h at 4° C.
Using a CellHarvester (PerkinElmer, formerly Packard Biosciences), receptor/ligand complexes were retained on 96-well GF/B filters (PerkinElmer, formerly Packard Biosciences) while free radioligand passed through the filters. Scintillation counting of GF/B filter plates was performed using a TopCount NXT (PerkinElmer, formerly Packard Biosciences) to quantitate the amount of [1,2,6,7-^3H] aldosterone bound to the hMR LBD.
The IC50 of a test compound was determined from the concentration of test compound giving half-maximal displacement as obtained by nonlinear least-squares curve fitting to a one-site binding sigmoidal model using Prism 3.0 (Graph Pad Software, Inc., San Diego, US). The calculated IC50 values represent the average values calculated from the results of 1-3 experiments carried out in duplicate.
IC50 and inhibitory ratio calculations: To provide a measure of the potency of each test compound as an antagonist of MR, the IC50 of each test compound (IC50^Test) for ligand binding to MR and the IC50 of the known MR antagonists eplerenone (IC50^Ep) and spironolactone (IC50^Sp) for ligand binding to MR were used to calculate an IC50 ratio (RIC50) according to the following equations: RIC50^Ep/Test=IC50^Ep/IC50^Test and RIC50^Sp/Test=IC50^Sp/IC50^Test.
These individual inhibitory ratios were used to calculate a total inhibitory ratio (IR^TOTAL) according to the following equation: IR^TOTAL=IR^AR/MR+IR^ER/MR+IR^GR/MR+IR^PR/MR. B. Results and Discussion

[2] = target: T2, GAL4 DBD-hMR LBD fusion protein (Homo sapiens, UniProt P08235); assay: Cell-based luciferase assay, agonist mode (CV-1 cells); settings: 10 μM of compound
T2 construct: expressed in transfected cells; host or cells: CV-1 cells (African green monkey kidney), transient co-transfection with pCMX-GAL4-based vector and Galp3TKLuc reporter
T2 sequence (P08235 with tags, fused parts or gaps limits assumed): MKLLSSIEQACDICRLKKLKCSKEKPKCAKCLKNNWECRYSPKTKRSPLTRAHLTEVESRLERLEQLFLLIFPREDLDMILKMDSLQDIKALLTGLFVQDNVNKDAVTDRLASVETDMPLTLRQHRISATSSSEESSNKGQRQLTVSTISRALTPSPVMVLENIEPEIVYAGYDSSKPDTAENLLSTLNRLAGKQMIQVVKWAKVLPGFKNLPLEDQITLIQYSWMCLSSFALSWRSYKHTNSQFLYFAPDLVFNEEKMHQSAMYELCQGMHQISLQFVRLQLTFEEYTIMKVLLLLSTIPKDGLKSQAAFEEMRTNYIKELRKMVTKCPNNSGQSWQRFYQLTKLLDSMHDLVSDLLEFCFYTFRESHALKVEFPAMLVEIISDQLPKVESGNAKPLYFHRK
Description: GAL4 DBD-hMR LBD fusion protein expression vector: A pCMX-GAL4-based vector was used for the expression of a fusion protein composed of the amino acids 1-147 of the DNA binding domain of Saccharomyces cerevisiae GAL4 (GAL4 DBD) (SEQ ID NO: 16) and amino acid residues 729-984 of the ligand binding domain of human mineralocorticoid receptor (hMR LBD) (SEQ ID NO: 14). The expression vector contained an expression cassette of the nucleotide sequence for the GAL4 DBD (See SEQ ID NO: 19) ligated to nucleotides 2401 through 3168 of the human mineralocorticoid (hMR) receptor (SEQ ID NO: 13).
In vitro cell culture: CV-1 cells (African green monkey kidney cell line, ATCC accession number CCL-70) were maintained in culture in 90% DMEM medium supplemented by 9% FCS and 1% Penicillin-Streptomycin-L-Glutamine at 37° C. under 8.5% CO2.
These cells were transiently co-transfected with the GAL4 DBD-hMR LBD fusion protein expression vector and the Galp3TKLuc reporter gene vector using the FuGENE 6 Transfection Reagent (Roche) according to the manufacturer's instructions.
Agonist assay: As a positive control, aldosterone (Acros Organics, catalogue # 215360050) was used at a concentration of 100 nM. The negative control sample was 90% DMEM medium supplemented by 9% charcoal-treated FCS and 1% Penicillin-Streptomycin-L-Glutamine containing 0.2% DMSO plus 0.02% ethanol. Positive control, negative control, or 10 μM final concentration of test compound was added to the cells and incubated for 24 hours at 37° C. under 8.5% CO2 before the Luciferase substrate (Promega, catalogue number #E2620) was added. After an incubation period of 5 min at RT, luminescence signals were read on a microplate reader (Molecular Devices/LJL Biosystems). Negative and positive controls were defined as 0% and 100% agonism, respectively. The agonistic potency of test compounds is given in % and was normalized to the positive and negative controls.

## CCS[C@@H]1CC2=CC(=O)CC[C@]2(C)C2=CC[C@@]3(C)C(CC[C@@]34CCC(=O)O4)C21 (stereo partly drawn) [Example 13]
[1]
  IR^TOTAL compared with the IR^TOTAL for eplerenone: at least an order of magnitude greater than the IR^TOTAL for eplerenone
  IR^TOTAL compared with the IR^TOTAL for spironolactone: at least an order of magnitude greater than the IR^TOTAL for spironolactone
[2]
  potency for activation of MR relative to aldosterone: at least three orders of magnitude less potent than aldosterone
